Measured values reported in EP0102319B1, “Prophylactic and therapeutic use of muramyl peptides and their analogues against viral infections” (CIBA-GEIGY AG, priority 1982, dated 1984).

Key:
Influenza A/Texas/1/77 = experiment: Lethal intranasal virus infection of mice, single dose of active substance, survival; format: in vivo, Mäuse
Method: (§1) Gruppen von 30, 40 oder 50 weiblichen MF-2f SPF-Mäusen mit einem Körpergewicht von 14-16 g bzw. 12-14 g bei den Versuchen mit Herpes simplex 1 Viren werden unter leichter Narkose mit einem Gemisch aus gleichen Teilen Aether, Äthanol und Chloroform mit letalen Dosen (ungefähr eine LD80-90; Anzahl der plaque forming units [PFU] siehe Tabelle 1) der untengenannten Viren-Stämme in Form von je 0,05 ml einer Suspension der Viren intranasal infiziert.
(§2) 10 oder 20 von diesen Mäusen werden zum unten angegebenen Zeitpunkt [Tage] bezogen auf den Tag der Infektion einmal (Einzeldosis) die in Tabelle 1 genannten Mengen der Wirksubstanz N-Acetyl- muramyl-L-alanyl-D-isoglutaminyl-L-alanin-2-(1.2-dipalmitoyl-sn-glycero-3-hydroxyphosphoryioxy)-äthylamid-natriumsalz (Verbindung I) in 0,05 bzw. 0,1 ml Phosphat-gepufferter-Salzlösung (PBS) bzw. in 0,2 ml einer 0,05 Gew.-%igen Lösung von Natriumcarboxymethylcellulose in doppelt destilliertem Wasser im Falle von intranasaler, intravenöser bzw. oraler Applikation auf die in Tabelle 1 genannte Art appliziert.
(§3) Die restlichen der obengenannten Mäuse, d. h. 20 oder 30, dienen zur Kontrolle, d. h. sie bleiben entweder unbehandelt oder erhalten ein Placebo.
(§4) Die intranasale Applikation von Verbindung I wird unter leichter Narkose mit einem Gemisch aus gleichen Teilen Diäthyläther, Aethanol und Chloroform durchgeführt.

[1] = test system: Herpesvirus hominis 1/TUP; experiment: Lethal intranasal virus infection of mice, single dose of active substance, protection; format: in vivo, Mäuse; settings: 10 mg/kg, day -7, intranasal infection (Figur 3)
Method: as §1, §2, §3, §4

[2] = intranasal, 1 mg/kg, single dose on day '-' (number not given) before infection
[3] = oral, 10 mg, single dose on day +7 after infection

Structure (SMILES) | Mäuse die Infektion überleben (Influenza A/Texas/1/77; [2]) | Mäuse die Infektion überleben (Influenza A/Texas/1/77; [3]) | Schutzwirkung (Influenza A/Texas/1/77; [2]) | outcome of infection (death of mice) (Influenza A/Texas/1/77; [3]) | Schutzwirkung [1]
CCCCCCCCCCCCCCCC(=O)OC[C@H](COP(=O)(O)OCCNC(=O)[C@H](C)NC(=O)CC[C@@H](NC(=O)[C@H](C)NC(=O)[C@@H](C)O[C@H]1[C@H](O)[C@@H](CO)OC(O)[C@@H]1NC(C)=O)C(N)=O)OC(=O)CCCCCCCCCCCCCCC (stereo partly drawn) [Verbindung I, N-Acetyl-muramyl-L-alanyl-D-isoglutaminyl-L-alanin-2-(1,2-dipalmitoyl-sn-glycero-3-hydroxyphosphoryloxy)-äthylamid] | 90% | 65% | – | – | –
CCCCOC(=O)[C@@H](CCC(N)=O)NC(=O)[C@H](C)NC(=O)[C@@H](C)O[C@H]1[C@H](O)[C@@H](CO)OC(O)[C@@H]1NC(C)=O (stereo partly drawn) [Verbindung II, N-Acetyl-muramyl-L-alanyl-D-glutamin-n-butylester] | – | – | keinerlei Schutzwirkung | sämtliche Mäuse an der Infektion mit Influenza A/Texas/1/77 sterben | Keinerlei Schutzwirkung
